Measured values: patent US11369615B2, “Agent for improving mitochondrial dysfunction, preventative or therapeutic agent for diseases or symptoms caused by mitochondrial dysfunction, and applications therefor” (JICHI MEDICAL UNIVERSITY, priority 2017, dated 2022)
Structures can show the parent of a compound that is named as a salt.

What was measured:
[1] = system: KCMC10 cells; experiment: Evaluation test for mitochondrial function (extracellular flux analyzer, OCR), KCMC10 cells; format: cell-based, human; conditions: 10 to 100 nM, 24 hours after addition, vs DMSO control
Description: (§1) An evaluation test for mitochondrial function including ATP production (capacity) was carried out by using an extracellular flux analyzer (XFe96, Primetech Corporation). Mitochondrial function can be evaluated by continuously measuring the oxygen consumption rate (OCR) of mitochondria during ATP synthesis by use of the extracellular flux analyzer while adding ATP synthase inhibitors (oligomycin, rotenone and antimycin A) and an uncoupler (carbonyl cyanide-p-trifluoromethoxy phenylhydrazone (FCCP)). The evaluation items to be analyzed were basal respiratory volume, ATP production (capacity) and maximum respiratory volume, which are major indexes for evaluating mitochondrial function. The test procedure is as follows. The cells to be used in the test were seeded in a 96-well plate for cell culture so as to satisfy a concentration of 20,000 cells/well and 80 μL medium/well and cultured in a CO2 incubator (37° C., 5% CO2) for 24 hours. Twenty four hours after the culture, each of the pharmaceutical agents (final concentration of 1,000, 100 or 10 nM) of the drug library or the same amount of dimethyl sulfoxide (DMSO) as a control was added to the cells within wells. Twenty minutes after the addition of the pharmaceutical agent, oligomycin (final concentration of 2 μM) was added. Fifty minutes after the addition of the pharmaceutical agent, FCCP (final concentration of 2 μM) was added. Eighty minutes after the addition of the pharmaceutical agent, rotenone and antimycin A (final concentration of 0.5 μM) were sequentially added. The oxygen consumption rate (OCR) was measured with time. Based on the measurement results 24 hours after the addition of the pharmaceutical agents of the drug library, basal respiratory volume, ATP production (capacity) and maximum respiratory volume were evaluated.
(§2) Reference symbols of ** and ***, which represent p values relative to the control (DMSO) calculated by Student's t-test, show […], respectively.

[2] = system: KCMC10 cells derived from a patient with Leigh syndrome; experiment: Oxidative stress test (BSO-induced cell death), KCMC10 cells; format: cell-based, human; conditions: BSO plus agent 1 μM, 48 hours after addition
Excerpt: (§3) In mitochondrial dysfunction, for example, ATP production is damaged and/or oxidative stress increases, with the result that apoptosis of cells is induced. Because of this, individuals having mitochondrial dysfunction are reported to be less tolerant to oxidative stress, compared to normal individuals (Shrader W D et al., Bioorg Med Chem Lett., Jun. 15, 2011, Vol. 21 (12), p. 3693-8, doi: 10.1016/j.bmc1.2011.04.085. electronically published on Apr. 24, 2011, PubMed PMID: 21600768). Then, oxidative stress was given to the skin fibroblasts of individual patients mentioned above to induce apoptosis. Under the conditions, compounds of the drug library were each administered to the cells. In this manner, a primary screening was carried out. Then, candidate pharmaceutical agents selected by the primary screening were subjected to a secondary screening, which is an in-vitro evaluation test such as a mitochondrial function evaluation test and a microarray expression analysis.
(§4) The oxidative stress test is a known pharmaceutical agent screening method, which was carried out under the conditions where cell death was induced by addition of L-buthionine-(S,R)-sulfoximine (BSO) (Arce P M et al., ACS Med Chem Lett., May 31, 2011, Vol. 2 (8), p. 608-13, doi: 10.1021/m1200095w. eCollection, Aug. 11, 2011, PubMed PMID: 24900356; PubMed Central PMCID: PMC4018135). BSO inhibits synthesis of glutathione serving as an antioxidant in the cells to deplete glutathione, raising the level of active oxygen within the cells. The procedure of the test is as follows. The cells to be used in the test were seeded in a 96-well plate for cell culture so as to satisfy a concentration of 5,000 cells/well and 80 μL medium/well and cultured in a CO2 incubator (37° C., 5% CO2) for 24 hours. Twenty four hours after the culture, BSO and each of the pharmaceutical agents (final concentration of 1 μM) of the drug library were together added to the cells within the wells. Forty eight hours after the addition, survival rates were determined. The survival rates were determined by measuring absorbance of formazan generated by use of cell count reagent SF (Nacalai Tesque, Inc.). As a positive control compound, idebenone (Non Patent Literature 1) approved as a therapeutic agent for Leber's hereditary optic neuritis in Europe, was used in the same concentration.
(§5) An oxidative stress test was carried out by using three fibroblast cell lines derived from patients with a mitochondrial disease and provided in 1-2. The pharmaceutical agent showing the survival rate equal to or more than that of idebenone, a positive control compound, was determined to be effective. The results of oxidative stress test of pharmaceutical agents of the drug library to KCMC10 cells are shown in FIG. 2; the results of oxidative stress test of pharmaceutical agents of the drug library to ME54 cells are shown in FIG. 3; and the results of oxidative stress test of pharmaceutical agents of the drug library to ME110 cells are shown in FIG. 4.

[3] = system: ME110 cells derived from a patient with MELAS; experiment: Oxidative stress test (BSO-induced cell death), ME110 cells; format: cell-based, human; conditions: BSO plus agent 1 μM, 48 hours after addition
Excerpt: as §3, §4, §5

[4] = system: ME54 cells derived from a patient with Leigh syndrome; experiment: Oxidative stress test (BSO-induced cell death), ME54 cells; format: cell-based, human; conditions: BSO plus agent 1 μM, 48 hours after addition
Excerpt: as §3, §4, §5

[5] = stated as known; cited from earlier work
[6] = system: KCMC10 cells derived from patients with Leigh syndrome; experiment: Microarray expression analysis
Description: Expression analysis by a microarray was carried out by use of SurePrint G3 Human Gene Expression 8×60K v3 of Agilent Technologies, Inc. To KCMC10 cells derived from patients with Leigh syndrome, BSO was added, to prepare a group of patients provided with oxidative stress. To the cells, BSO and each of the candidate pharmaceutical agents selected from the drug library were both added to prepare another group. In this manner, two samples per each group were prepared. RNA was extracted from each of the samples and subjected to expression analysis by a microarray.
In the tables, the value of Log 2 ratio between the two groups of 1 means that expression ratios differ twice, the value of Log 2 ratio of 2 means 4 times difference and the value of Log 2 ratio of 3 means 8 times difference.

[7] = system: ME110 cells; experiment: Evaluation test for mitochondrial function (extracellular flux analyzer, OCR), ME110 cells; format: cell-based, human; conditions: 10 nM, 24 hours after addition, vs DMSO control
Description: as §1, §2

[8] = system: ME54 cells derived from a patient with Leigh syndrome; experiment: Tolerance to oxidative stress by BSO, ME54 cells; format: cell-based, human
Description: as §4, with “concentration. […]” for “concentration.”

[9] = system: Promo 1 cells as normal cells; experiment: Tolerance to oxidative stress by BSO, Promo1 normal cells; format: cell-based, human; conditions: Promo 1 normal cells; concentration range of 1 to 1000 μM
Description: as §4, with “concentration. […]” for “concentration.”

[10] = KCMC10, BSO/agent vs BSO, Inflammatory cytokine
[11] = KCMC10, BSO/agent vs BSO, JAK-STAT signal pathway
[12] = KCMC10, BSO/agent vs BSO, Lymphocytic tissue homing receptor
[13] = KCMC10, BSO/agent vs BSO, MARK signal pathway
[14] = KCMC10, BSO/agent vs BSO, Proinflammatory effect
[15] = KCMC10, BSO/agent vs BSO, Table 4
[16] = KCMC10, BSO/agent vs BSO, WNT signal pathway
[17] = KCMC10, BSO/agent vs BSO, mTOR signal pathway
[18] = KCMC10 cells, BSO/agent addition group vs BSO addition group

CN1CCc2cccc3c2[C@H]1Cc1ccc(O)c(O)c1-3 [Pharmaceutical agent No. 5, R(−)-Apomorphine hydrochloride hemihydrate]
ATP production (capacity) [1]: significantly improved
basal respiratory volume [1]: significantly improved
maximum respiratory volume [1]: significantly improved
survival rate equal to or more than that of idebenone (determined to be effective) [2]: effective
survival rate equal to or more than that of idebenone (determined to be effective) [3]: effective
survival rate equal to or more than that of idebenone (determined to be effective) [4]: effective
ability to pass through the blood-brain barrier [5]: known to be able to pass through the blood-brain barrier
Expression change (Increase/Decrease), CCL3 [6, 10]: Decrease
Expression change (Increase/Decrease), IL24 [6, 10]: Decrease
Expression change (Increase/Decrease), LIF [6, 10]: Decrease
Log 2 ratio between two groups, CCL3 [6, 10]: −2.98
Log 2 ratio between two groups, IL24 [6, 10]: −1.77
Log 2 ratio between two groups, LIF [6, 10]: −3.32
Expression change (Increase/Decrease), BCL2A1 [6, 11]: Decrease
Expression change (Increase/Decrease), FHL1 [6, 11]: Increase
Expression change (Increase/Decrease), IL13RA2 [6, 11]: Decrease
Expression change (Increase/Decrease), SOCS2 [6, 11]: Increase
Expression change (Increase/Decrease), SOSC1 [6, 11]: Decrease
Log 2 ratio between two groups, BCL2A1 [6, 11]: −3.90
Log 2 ratio between two groups, FHL1 [6, 11]: 1.01
Log 2 ratio between two groups, IL13RA2 [6, 11]: −1.63
Log 2 ratio between two groups, SOCS2 [6, 11]: 1.30
Log 2 ratio between two groups, SOSC1 [6, 11]: −1.21
Expression change (Increase/Decrease), CCL19 [6, 12]: Decrease
Log 2 ratio between two groups, CCL19 [6, 12]: −4.92
Expression change (Increase/Decrease), DUSP6 [6, 13]: Decrease
Log 2 ratio between two groups, DUSP6 [6, 13]: −3.25
Expression change (Increase/Decrease), IL12A [6, 14]: Decrease
Log 2 ratio between two groups, IL12A [6, 14]: −2.71
Expression change (Increase/Decrease), CCL7 [6, 15]: Decrease
Expression change (Increase/Decrease), CSF3 [6, 15]: Decrease
Expression change (Increase/Decrease), CXCL2 [6, 15]: Decrease
Expression change (Increase/Decrease), CXCL3 [6, 15]: Decrease
Expression change (Increase/Decrease), CXCL8 [6, 15]: Decrease
Expression change (Increase/Decrease), MMP1 [6, 15]: Decrease
Log 2 ratio between two groups, CCL7 [6, 15]: −2.41
Log 2 ratio between two groups, CSF3 [6, 15]: −5.58
Log 2 ratio between two groups, CXCL2 [6, 15]: −2.68
Log 2 ratio between two groups, CXCL3 [6, 15]: −3.72
Log 2 ratio between two groups, CXCL8 [6, 15]: −4.34
Log 2 ratio between two groups, MMP1 [6, 15]: −1.40
Expression change (Increase/Decrease), DKK4 [6, 16]: Increase
Expression change (Increase/Decrease), FZD8 [6, 16]: Decrease
Expression change (Increase/Decrease), GBP [6, 16]: Increase
Expression change (Increase/Decrease), LEF1 [6, 16]: Decrease
Expression change (Increase/Decrease), SOST [6, 16]: Increase
Log 2 ratio between two groups, DKK4 [6, 16]: 1.66
Log 2 ratio between two groups, FZD8 [6, 16]: −1.51
Log 2 ratio between two groups, GBP [6, 16]: 2.11
Log 2 ratio between two groups, LEF1 [6, 16]: −1.23
Log 2 ratio between two groups, SOST [6, 16]: 1.70
Expression change (Increase/Decrease), CAB39L [6, 17]: Decrease
Expression change (Increase/Decrease), DEPTOR [6, 17]: Increase
Expression change (Increase/Decrease), FECN [6, 17]: Decrease
Expression change (Increase/Decrease), PRR5 [6, 17]: Increase
Expression change (Increase/Decrease), RNF152 [6, 17]: Decrease
Expression change (Increase/Decrease), RPS6KA1 [6, 17]: Decrease
Expression change (Increase/Decrease), RRAGD [6, 17]: Decrease
Expression change (Increase/Decrease), SESN2 [6, 17]: Increase
Log 2 ratio between two groups, CAB39L [6, 17]: −1.37
Log 2 ratio between two groups, DEPTOR [6, 17]: 2.11
Log 2 ratio between two groups, FECN [6, 17]: −1.61
Log 2 ratio between two groups, PRR5 [6, 17]: 4.19
Log 2 ratio between two groups, RNF152 [6, 17]: −1.61
Log 2 ratio between two groups, RPS6KA1 [6, 17]: −1.22
Log 2 ratio between two groups, RRAGD [6, 17]: −2.27
Log 2 ratio between two groups, SESN2 [6, 17]: 1.41
number of genes showing a significant change in expression (expression ratio differs twice or more) [6, 18]: 475 types of genes
overall expression change of genes of the WNT-mTOR signal pathway (Table 3) [6, 18]: changed toward suppressing the WNT-mTOR signal pathway
overall expression change of genes related to cytokines or chemokines involved in inflammation or natural immunity (Table 4) [6, 18]: changed toward suppressing expression of the cytokines or chemokines
ATP production (capacity) [7]: significantly improved
basal respiratory volume [7]: significantly improved
maximum respiratory volume [7]: significantly improved

CCCCS(=N)(=O)CCC(N)C(=O)O [BSO, L-buthionine-(S,R)-sulfoximine]
concentration at which the survival rate significantly decreased [8]: ≥ 50 µM
difference in survival rates [9]: no significant difference
